Experiment [1] has as its target eIF-2-alpha kinase GCN2 (Homo sapiens, UniProt Q9P2K8). Put plainly: Biochemical Assay for GCN2. On the procedure: Activity of GCN2 kinase was determined using a TR-FRET kinase activity assay (e.g. Riddle et al. Analytical Biochemistry (2006) 356(1) 108-116). Assays were conducted in 384-well plates (13 μL assay volume) using 2 nM GCN2 (Carna Biosciences), 130 nM GFP-EIf2α (Invitrogen), 0.2 mg/mL E. coli tRNA (sigma) and 1 mM ATP in kinase buffer (Invitrogen). Inhibition of GCN2 was measured by adding serial diluted test compound (final assay concentration of 0.5% DMSO) followed by a 3-hour incubation. Tb-peIF2α (pSer52) antibody (Invitrogen) (2 nM final assay concentration) in kinase buffer containing ETDA (final assay concentration of 20 mM) was added. After a 60 min incubation at room temperature, TR-FRET was monitored using an excitation wavelength of 340 nm and emission wavelengths of 490 nm and 520 nm. The emission ratio (520/490) at each compound concentration of was converted to percent inhibition using controls (i.e. reaction with no test compound and reaction with a known inhibitor) and IC50 values were calculated by fitting a four-parameter sigmoidal curve to the data using Prism (GraphPad software).

Experiment [2] addresses T1, Eukaryotic translation initiation factor 2-alpha kinase 3 [563-1115] (Homo sapiens, UniProt Q9NZJ5).
T1 construct: 563-1115
T1 sequence (Q9NZJ5 whole entry): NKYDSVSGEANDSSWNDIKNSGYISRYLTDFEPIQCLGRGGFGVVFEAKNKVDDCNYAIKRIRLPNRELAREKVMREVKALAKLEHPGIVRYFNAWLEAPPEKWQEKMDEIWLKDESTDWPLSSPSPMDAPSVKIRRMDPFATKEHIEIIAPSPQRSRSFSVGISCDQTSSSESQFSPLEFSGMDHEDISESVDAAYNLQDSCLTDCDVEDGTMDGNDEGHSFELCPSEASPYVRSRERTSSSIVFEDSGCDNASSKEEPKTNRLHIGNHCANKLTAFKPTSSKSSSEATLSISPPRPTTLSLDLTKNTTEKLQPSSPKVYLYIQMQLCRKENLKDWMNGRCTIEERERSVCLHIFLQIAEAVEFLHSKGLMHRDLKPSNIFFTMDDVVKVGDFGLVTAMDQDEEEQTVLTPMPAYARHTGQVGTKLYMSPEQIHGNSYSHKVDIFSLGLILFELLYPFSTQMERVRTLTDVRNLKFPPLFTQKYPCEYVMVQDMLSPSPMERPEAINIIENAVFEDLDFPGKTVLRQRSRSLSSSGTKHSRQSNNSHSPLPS
Put plainly: Biochemical Assay for PERK. On the procedure:
Activity of PERK kinase was determined spectroscopically using a coupled pyruvate kinase/lactate dehydrogenase assay that continuously monitors the ATP hydrolysis-dependent oxidation of NADH (e.g., Schindler et al. Science (2000) 289: 1938-1942). Assays were conducted in 384-well plates (100 μL final volume) using 10 nM PERK (from Beryllium), 0.25 mg/mL Myelin Basic Protein substrate, 1.5 units pyruvate kinase, 2.1 units lactate dehydrogenase, 1 mM phosphoenol pyruvate, 0.28 mM NADH and 1 mM ATP in assay buffer (100 mM Tris, pH 7.5, 15 mM MgCl2, 0.5 mM DTT, 0.004% (w/v) BSA, and 0.004% Triton X-100). Inhibition of PERK was measured by adding serial diluted test compound (final assay concentration of 1% DMSO). A decrease in absorption at 340 nm was monitored continuously for 6 hours at 30° C. on a multi-mode microplate reader (BioTek). The reaction rate was calculated using the 2-3 h time frame. The reaction rate at each concentration of compound was converted to percent inhibition using controls (i.e. reaction with no test compound and reaction with a known inhibitor) and IC50 values were calculated using software routines in Prism (GraphPad software).

eIF-2-alpha kinase GCN2, sequence (Q9P2K8 whole entry): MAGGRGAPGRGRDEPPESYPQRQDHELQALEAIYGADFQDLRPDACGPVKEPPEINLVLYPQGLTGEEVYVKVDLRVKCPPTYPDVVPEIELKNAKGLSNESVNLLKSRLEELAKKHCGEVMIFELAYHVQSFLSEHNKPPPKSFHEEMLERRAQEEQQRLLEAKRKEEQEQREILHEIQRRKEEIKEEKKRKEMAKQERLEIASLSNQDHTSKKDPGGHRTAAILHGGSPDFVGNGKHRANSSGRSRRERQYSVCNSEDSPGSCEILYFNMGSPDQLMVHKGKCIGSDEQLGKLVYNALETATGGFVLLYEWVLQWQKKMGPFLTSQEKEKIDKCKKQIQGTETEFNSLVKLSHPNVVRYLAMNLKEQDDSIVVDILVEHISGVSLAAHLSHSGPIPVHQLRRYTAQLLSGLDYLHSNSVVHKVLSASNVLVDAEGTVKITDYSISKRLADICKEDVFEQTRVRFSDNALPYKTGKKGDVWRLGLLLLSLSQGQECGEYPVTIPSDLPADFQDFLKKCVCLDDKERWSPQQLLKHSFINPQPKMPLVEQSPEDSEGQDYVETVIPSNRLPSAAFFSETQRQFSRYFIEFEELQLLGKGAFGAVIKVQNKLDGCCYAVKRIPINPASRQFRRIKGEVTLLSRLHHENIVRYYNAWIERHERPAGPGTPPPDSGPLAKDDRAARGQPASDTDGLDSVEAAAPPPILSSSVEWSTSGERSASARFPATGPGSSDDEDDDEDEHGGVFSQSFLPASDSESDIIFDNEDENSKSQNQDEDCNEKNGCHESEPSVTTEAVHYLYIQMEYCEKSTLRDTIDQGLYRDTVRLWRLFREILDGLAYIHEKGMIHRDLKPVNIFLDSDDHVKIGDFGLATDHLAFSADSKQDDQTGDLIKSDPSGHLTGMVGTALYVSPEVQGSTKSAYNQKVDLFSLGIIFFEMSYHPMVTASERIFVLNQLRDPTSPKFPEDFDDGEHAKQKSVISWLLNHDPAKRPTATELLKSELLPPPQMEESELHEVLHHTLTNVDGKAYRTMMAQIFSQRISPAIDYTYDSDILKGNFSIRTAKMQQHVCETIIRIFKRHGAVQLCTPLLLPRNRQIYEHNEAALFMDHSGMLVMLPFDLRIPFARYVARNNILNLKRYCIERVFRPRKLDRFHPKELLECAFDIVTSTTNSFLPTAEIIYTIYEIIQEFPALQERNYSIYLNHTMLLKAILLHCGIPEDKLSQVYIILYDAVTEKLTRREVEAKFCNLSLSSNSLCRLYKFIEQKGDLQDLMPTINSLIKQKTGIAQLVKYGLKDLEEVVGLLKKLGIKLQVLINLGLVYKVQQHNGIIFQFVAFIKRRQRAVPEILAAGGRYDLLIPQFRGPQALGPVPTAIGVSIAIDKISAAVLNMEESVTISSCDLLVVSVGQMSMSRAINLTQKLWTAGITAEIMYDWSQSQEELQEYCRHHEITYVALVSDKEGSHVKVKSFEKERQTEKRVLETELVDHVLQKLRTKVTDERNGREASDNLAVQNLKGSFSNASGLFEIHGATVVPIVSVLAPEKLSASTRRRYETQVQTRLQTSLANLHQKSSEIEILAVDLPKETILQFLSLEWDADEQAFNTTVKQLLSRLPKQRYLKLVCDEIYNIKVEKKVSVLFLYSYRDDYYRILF

What is called IC50 is the concentration needed to halve the response being measured. A low value points to higher potency. Turning to `CNc1ncc2cc(-c3cc(F)cc(NS(=O)(=O)c4cc(Cl)cnc4OC)c3)c(C)nc2n1` [US11912668, Example 65], in experiment [1], the IC50 is below 100 nM. With `CNc1cc2nc(N)c(-c3cccc(NS(=O)(=O)c4cc(Cl)cc(CO)c4Cl)c3F)cc2cn1` [US11912668, Example 171], the IC50 in experiment [2] and in experiment [1] was below 100 nM in each case.

Regarding `Cc1nc2cc(N)ncc2cc1-c1cccc(NS(=O)(=O)c2cc(Cl)cc(CO)c2Cl)c1F` [US11912668, Example 174], the IC50 in experiment [2] and in experiment [1] was below 100 nM each time.

(Values after BindingDB's records for patent US11912668 (Deciphera Pharmaceuticals, 2024).)
